Data on six compounds can be found in patent publication US10125104B2, “Carotenoid derivative, pharmaceutically acceptable salt thereof, or pharmaceutically acceptable ester or amide thereof” (Asta Pharmaceuticals Co., Ltd., priority 2014, dated 2018).

Data set [1] is described as follows: Test for confirmation of water solubility (distribution to water/methylene chloride). The class given is physicochemical. Here is the method: Test for Confirmation of Water Solubility (Distribution to Water/Methylene Chloride)
To each of the samples (1 mg) in Table 43, water (5 mL) and methylene chloride (5 mL) were added and the mixture was shaken, which was called the group of Solution A. A 28% sodium methoxide/methanol solution (463 μL (2.33 mmol)) was dissolved in water (10 mL), and the aqueous solution (1 mL) was collected and dissolved in water (100 mL), which was called Solution B. To each of the group of Solution A, Solution B (1 mL) was added and shaken. The solution was left at room temperature, each of the aqueous layer and of the organic layer were measured by HPLC and the ratio of the compound in the aqueous layer was shown in Table 4.
HPLC conditions were as follows:
chromatograph (HITACHI LaChrom Elite D-2000), column (SHISEIDO CAPCELL PAK C18 (3 μm particle diameter, 4.6 mm×150 mm)), detection temperature (40° C.), detection wavelength (474 nm), flow rate (1.0 mL/min) and mobile phase set up (% A=0.025% TFA/water, % B=0.025% TFA/acetonitrile); 70% A/30% B (at the start), 50% B gradient until 2.5 minutes, 98% B gradient until 4.2 minutes and the ratio (98% B) maintained until 15 minutes. The ratio in the aqueous layer was calculated from the following equation. […]

Data set [2] relates to IL-1β mRNA in RAW264.7 cells. Kind of data set: Test for anti-inflammation in a cell: IL-1β mRNA by quantitative RT-PCR after LPS. The class given is cell-based, mouse. The note with it: for IL-1β Gene expressivity: relative to the control, LPS 1 ng/mL, 2 hours; for suppression of IL-1β gene expression (in words): RAW264.7 cells, LPS. Here is the method:
Test for Anti-Inflammation in a Cell
These cells were cultured for 48 hours in 5% CO2 at 37° C. After the medium replacement, an aqueous solution of the sample was added to the medium and the cell was cultured for 24 hours. The medium was then replaced, LPS (1 ng/mL) was added thereto and the cell was cultured for 2 hours.
Then, the medium was removed and the RAW264.7 cells were washed with physiological phosphate buffer solution (PBS). This operation was performed 3 times. Then, Total RNA was extracted using RNeasy Mini Kit (QIAGEN Inc.), and the production amount of IL-1β mRNA which is an inflammatory cytokine, was measured by a quantitative RT-PCR method using PRISM 7000 (Applied Biosystem).

A further data set deals with TNF-α. Briefly: Test for anti-inflammation in rats (LPS intraperitoneally): blood plasma TNF-α by ELISA. Type of data set: in vivo, Wistar rats. Particulars: for TNF-α concentration in blood plasma: 4 mg/kg LPS i.p., then sample i.p., blood after 9 hours. Here is the method: (§1) Test for Anti-Inflammation in Rats
(§2) Six week-old Wistar rats (purchased from Sankyo Labo Service Corporation, 200-250 g body weight) were acclimatized for 1 week with free access to food under a 12/12-hr light-dark cycle. An aqueous solution of 4 mg/kg LPS (lipopolysaccharide, derived from Escherichia coli and manufactured by Wako Pure Chemical Industries, Ltd.) was injected intraperitoneally and then an aqueous solution of the sample was injected intraperitoneally. After 9 hours, the whole blood was collected from the ventral aorta and centrifuged for 10 minutes at 10,000 rpm, and the blood plasma was collected. The blood plasma TNF-α concentration was measured using a kit for measuring TNF-α (Rat TNF-alpha Quantikine ELISA Kit RTA00, manufactured by R&D Systems Inc.) and the blood plasma IL-1β concentration was measured using a kit for measuring IL-1β (Rat IL-1b/IL1F2 Quantikine ELISA Kit, manufactured by R&D Systems Inc.). The 3 to 4 animals per group were used. The blood plasma TNF-α concentration is shown in Table 46 and FIG. 3 and the blood plasma IL-1β concentration is shown in Table 46 and FIG. 4.

The subject of the next data set is IL-1β. Briefly: Test for anti-inflammation in rats (LPS intraperitoneally): blood plasma IL-1β by ELISA. The class given is in vivo, Wistar rats. The note with it: for IL-1β concentration in blood plasma: 4 mg/kg LPS i.p., then sample i.p., blood after 9 hours. Here is the method: as §1, §2
For data set [3] the following is noted: digestive absorption; cited from earlier work.
Data set [4] in a line: Test for oral absorption: blood plasma concentration of astaxanthin after oral gavage. The class given is in vivo, Wistar rat. The note with it: compared to astaxanthin (free form) and the extract from Haematococcus algae. How it is done: Test for Oral Absorption in […]
Each of the compound in Example 8, astaxanthin (free form) and an extract from Haematococcus algae (AstaReal L10, manufactured by Fuji Chemical Industries Co., Ltd., oil containing 10% astaxanthin extracted from Haematococcus algae) was diluted with 33% dimethyl sulfoxide, 60% polyethylene glycol and 0.03% aqueous carboxymethyl cellulose solution and prepared to have a concentration of 5 mg/ml as a conversion to astaxanthin free form. The prepared sample was administered to a Wistar rat fasted one night (male, 9 to 13 weeks old, 250 to 300 g of body weight, 2 or 4 animals per group) by oral gavage in an amount of astaxanthin (50 mg) per 1 kg of body weight. Then, the blood was collected at the time points of 3 hours, 6 hours and 24 hours and the blood plasma was isolated. To the obtained blood plasma (0.1 ml), acetone in an amount of 6 folds and hexane in an amount of 50 folds were added, and the solution was stirred well and centrifuged to obtain a hexane layer. The hexane layer was dried under reduced pressure and dissolved in acetone (0.1 ml). The obtained acetone solution (0.05 mL) was analyzed by high performance liquid chromatography (HPLC) under the following conditions and the blood concentration was measured. […]

Setting [5] is: compared to astaxanthin and disodium disuccinate astaxanthin.

Turning to `CC(C=CC=C(C)C=CC1=C(C)C(=O)C(OC(=O)CCC(=O)O)CC1(C)C)=CC=CC=C(C)C=CC=C(C)C=CC1=C(C)C(=O)C(OC(=O)CCC(=O)O)CC1(C)C` (stereo not drawn) [Astaxanthin disuccinate ester, astaxanthin disuccinic acid ester], the “Ratio of aqueous layer” value in data set [1] (1 mg sample in water 5 mL / methylene chloride 5 mL plus dilute sodium methoxide solution, HPLC peak areas, 474 nm) was 43.8%.
`CC(C=CC=C(C)C=CC1=C(C)C(=O)C(O)CC1(C)C)=CC=CC=C(C)C=CC=C(C)C=CC1=C(C)C(=O)C(O)CC1(C)C` (stereo not drawn) [Astaxanthin, 6-hydroxy-3-(18-[4-hydroxy-2,6,6-trimethyl-3-oxo-1-cyclohexenyl]-3,7,12,16-tetramethyloctadeca-1,3,5,7,9,11,13,15,17-nonaenyl)-2,4,4-trimethyl-2-cyclohexen-1-one, reference compound]: the “IL-1β Gene expressivity” value was found to be 1.00 in data set [2] (sample concentration 5 μM), 0.96 in data set [2] (sample concentration 25 μM) and 0.77 in data set [2] (sample concentration 50 μM). In data set [1], the “water solubility (in words)” value is on record as “extremely low solubility in water”. Besides, the “TNF-α concentration in blood plasma” value in the data set on TNF-α stood at 112.0 ± 35.6 pg/mL. Besides, the “IL-1β concentration in blood plasma” value with IL-1β turned out to be 203.9 ± 165.3 pg/mL. Also, the biological availability result in data set [3] is “around several percent”.
In the case of `CC1=C(/C=C/C(C)=C/C=C/C(C)=C/C=C/C=C(C)/C=C/C=C(C)/C=C/C2=C(C)C(=O)C(OC(=O)CCC(=O)O)CC2(C)C)C(C)(C)CC(OC(=O)CCC(=O)O)C1=O` (stereo not drawn) [Disodium Disuccinate Astaxanthin (DDA), Disodium Disuccinate Astaxanthin, reference compound], the “TNF-α concentration in blood plasma” value with TNF-α was determined as 99.6 ± 99.9 pg/mL. The “IL-1β concentration in blood plasma” value in the data set on IL-1β stood at 311.7 ± 269.1 pg/mL.
Consider `CC(C=CC=C(C)C=CC1=C(C)C(=O)C(OC(=O)CNC(=O)NCCCC(=O)O)CC1(C)C)=CC=CC=C(C)C=CC=C(C)C=CC1=C(C)C(=O)C(OC(=O)CNC(=O)NCCCC(=O)O)CC1(C)C` (stereo not drawn) [Example (8), 4-(3-{4-[18-(4-[3-(3-carboxylpropyl)ureidoacetoxy]-2,6,6-trimethyl-3-oxocyclohexa-1-enyl)-3,7,12,16-tetramethyloctadeca-1,3,5,7,9,11,13,15,17-nonaenyl]-3,5,5-trimethyl-2-oxocyclohexa-3-enyloxycarbonylmethyl}-ureido)butyric acid], for which the “oral absorbability (in words)” value in data set [4] is on record as “higher oral absorbability”.
`CC(C=CC=C(C)C=CC1=C(C)C(=O)C(OC(=O)CNC(=O)NCCCC(=O)[O-])CC1(C)C)=CC=CC=C(C)C=CC=C(C)C=CC1=C(C)C(=O)C(OC(=O)CNC(=O)NCCCC(=O)[O-])CC1(C)C.[Na+].[Na+]` (stereo not drawn) [Example (22), 4-(3-{4-[18-(4-[3-(3-carboxypropyl)ureidoacetoxy]-2,6,6-trimethyl-3-oxocyclohexa-1-enyl)-3,7,12,16-tetramethyloctadeca-1,3,5,7,9,11,13,15,17-nonaenyl]-3,5,5-trimethyl-2-oxocyclohexa-3-enyloxycarbonylmethyl}-ureido)butyric acid disodium salt]: in data set [2], the “suppression of IL-1β gene expression (in words)” value is listed as “suppressed IL-1β gene expression superiorly to astaxanthin”. The “IL-1β Gene expressivity” value is 0.92 in data set [2] (sample concentration 5 μM), 0.66 in data set [2] (sample concentration 25 μM) and 0.31 in data set [2] (sample concentration 50 μM).
For the compound `CC(C=CC=C(C)C=CC1=C(C)C(=O)C(OC(=O)CNC(=O)NCCCC(=O)O)CC1(C)C)=CC=CC=C(C)C=CC=C(C)C=CC1=C(C)C(=O)C(OC(=O)CNC(=O)NCCCC(=O)O)CC1(C)C.NCCCC[C@H](N)C(=O)O.NCCCC[C@H](N)C(=O)O` (stereo not drawn) [Example (23), 4-(3-{4-[18-(4-[3-(3-carboxypropyl)ureidoacetoxy]-2,6,6-trimethyl-3-oxocyclohexa-1-enyl)-3,7,12,16-tetramethyloctadeca-1,3,5,7,9,11,13,15,17-nonaenyl]-3,5,5-trimethyl-2-oxocyclohexa-3-enyloxycarbonylmethyl}-ureido)butyric acid dilysine salt], the “suppression of IL-1β gene expression (in words)” value in data set [2] is “suppressed IL-1β gene expression superiorly to astaxanthin”. Further, the “IL-1β Gene expressivity” value in data set [2] (sample concentration 5 μM) is recorded as 0.88. Besides, the “TNF-α concentration in blood plasma” value with TNF-α amounted to 81.8 ± 83.5 pg/mL. Moreover, the “suppression of generation of TNF-α (in words)” value in the data set on TNF-α (setting [5]) was “suppressed generation of TNF-α and of IL-1β more effectively”. For the same compound, the “IL-1β concentration in blood plasma” value in the data set on IL-1β worked out at 146.3 ± 98.0 pg/mL. In the data set with IL-1β (setting [5]), the “suppression of generation of IL-1β (in words)” value was “suppressed generation of TNF-α and of IL-1β more effectively”.
